According to patent US12054494B2, “Compound with anticancer activity” (KYOWA KIRIN CO., LTD., priority 2018, dated 2024):

System: SU-DHL-4 cells
Assay: Inhibitory effect on cell viability (Cell Counting Kit-8)
Type: cell-based
Details: Homo sapiens, 72 hours culture with test compound, concentration showing 90% inhibition rate of cell viability
Method in brief: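 SU-DHL-4 cells (2000/well, RPMI1640 with 10% FBS) precultured 18-25 h, then exposed to a 9-step compound dilution series (0.1% DMSO final) for 72 h at 37° C. Viability by CCK-8 absorbance at 450 nm after 2-3 h; IC90 computed from inhibition rate relative to untreated and cell-free wells.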

Row | SMILES | IC90 [nM]
1 | CCC(=O)N1c2ccccc2[C@H](Nc2ccc(-n3cc(CCNC(=O)c4ccc(Cn5c(C(=O)OCCN(C)C)cc6c5CCCC6=O)cc4)nn3)cc2)C[C@@H]1C [Compound 15c, 2-(Dimethylamino)ethyl 1-(4-((2-(1-(4-(((2S,4R)-2-methyl-1-propionyl-1,2,3,4-tetrahydroquinolin-4-yl)amino)phenyl)-1H-1,2,3-triazol-4-yl)ethyl)carbamoyl)benzyl)-4-oxo-4,5,6,7-tetrahydro-1H-indole-2-carboxylate] | 0.3
2 | CCC(=O)N1c2ccccc2[C@H](Nc2ccc(-c3cnn(CCNC(=O)c4ccc(Cn5c(C(=O)OCCN(C)C)cc6c5CCCC6=O)cc4)c3)cc2)C[C@@H]1C [Compound 15d, 2-(Dimethylamino)ethyl 1-(4-((2-(4-(4-(((2S,4R)-2-methyl-1-propionyl-1,2,3,4-tetrahydroquinolin-4-yl)amino)phenyl)-1H-pyrazol-1-yl)ethyl)carbamoyl)benzyl)-4-oxo-4,5,6,7-tetrahydro-1H-indole-2-carboxylate] | 0.16
3 | CCC(=O)N1c2ccccc2[C@H](Nc2ccc(-n3cc(CNC(=O)c4ccc(Cn5c(CC)cc6c5CCCC6=O)cc4)nn3)cc2)C[C@@H]1C [Compound 15f, 4-((2-Ethyl-4-oxo-4,5,6,7-tetrahydro-1H-indol-1-yl)methyl)-N-((1-(4-(((2S,4R)-2-methyl-1-propionyl-1,2,3,4-tetrahydroquinolin-4-yl)amino)phenyl)-1H-1,2,3-triazol-4-yl)methyl)benzamide] | 0.04
4 | CCC(=O)N1c2ccccc2[C@H](Nc2ccc(C(=O)NCc3cn(-c4ccc(Cn5c(CC)cc6c5CCCC6=O)cc4)nn3)cc2)C[C@@H]1C [Compound 15h, N-((1-(4-((2-Ethyl-4-oxo-4,5,6,7-tetrahydro-1H-indol-1-yl)methyl)phenyl)-1H-1,2,3-triazol-4-yl)methyl)-4-(((2S,4R)-2-methyl-1-propionyl-1,2,3,4-tetrahydroquinolin-4-yl)amino)benzamide] | 2.32
